From patent US12570642B2, “GLP-IR modulating compounds” (Gilead Sciences, Inc., priority 2021, dated 2026)

Biological target: GLP-1R (Homo sapiens, UniProt P43220)
Test: GLP-1R Activation - cAMP Assay
Assay type: cell-based
Conditions: cAMP increase in CHO cells stably expressing GLP-1R; each compound run on one of the two cAMP assays (Assay 1 or Assay 2, not specified)
Procedure, shortened: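 cAMP rise read by HTRF after 30 min agonist exposure (10-point titration, 37 °C) in HBSS/20 mM Hepes/0.1% BSA, following 1 h pre-incubation. Cells: stable GLP-1R CHO line, 1,000/well, seeded overnight. Sigmoidal fit of response vs log concentration gives EC50.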

Chain of GLP-1R (P43220 24-463): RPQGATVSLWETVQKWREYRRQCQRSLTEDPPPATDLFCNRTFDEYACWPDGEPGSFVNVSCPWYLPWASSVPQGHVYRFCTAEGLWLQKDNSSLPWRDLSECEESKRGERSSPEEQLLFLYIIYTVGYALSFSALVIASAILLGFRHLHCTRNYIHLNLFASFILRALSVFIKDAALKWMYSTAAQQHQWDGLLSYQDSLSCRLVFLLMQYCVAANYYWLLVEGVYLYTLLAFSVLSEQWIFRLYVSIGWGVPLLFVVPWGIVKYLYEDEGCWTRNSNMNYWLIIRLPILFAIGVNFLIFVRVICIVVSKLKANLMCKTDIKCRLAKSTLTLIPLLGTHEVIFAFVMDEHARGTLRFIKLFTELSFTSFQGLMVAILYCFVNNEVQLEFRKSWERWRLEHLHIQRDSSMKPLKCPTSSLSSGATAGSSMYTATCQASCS

EC50 | SMILES
0.043 nM | CC1(C)COCC1n1c(Cc2cc(F)c(-c3cccc(OCc4ccc(Cl)cc4)n3)cc2F)nc2ccc(C(=O)O)cc21 (stereo not drawn) [Example 387, 2-(4-(6-((4-chlorobenzyl)oxy)pyridin-2-yl)-2,5-difluorobenzyl)-1-(4,4-dimethyltetrahydrofuran-3-yl)-1H-benzo[d]imidazole-6-carboxylic acid]
0.053 nM | CC1(C)COC[C@H]1n1c(Cc2cc(F)c(-c3ccc(F)c(OCc4cnc(-n5ccnn5)cc4Cl)c3)cc2F)nc2ccc(C(=O)O)cc21 [Example 388, (S)-2-((3′-((4-chloro-6-(1H-1,2,3-triazol-1-yl)pyridin-3-yl)methoxy)-2,4′,5-trifluoro-[1,1′-biphenyl]-4-yl)methyl)-1-(4,4-dimethyltetrahydrofuran-3-yl)-1H-benzo[d]imidazole-6-carboxylic acid]
0.55 nM | COCCn1c(Cc2cc(F)c(-c3ccnc(OCc4cnc(-n5ccnn5)cc4Cl)n3)cc2F)nc2ccc(C(=O)O)cc21 [Example 389, 2-(4-(2-((4-chloro-6-(1H-1,2,3-triazol-1-yl)pyridin-3-yl)methoxy)pyrimidin-4-yl)-2,5-difluorobenzyl)-1-(2-methoxyethyl)-1H-benzo[d]imidazole-6-carboxylic acid]
3.12 nM | COCCn1c(Cc2cc(F)c(-c3ccc(F)c(OCc4cnc(-n5ccnn5)cc4Cl)c3)cc2F)nc2ccc(C(=O)O)cc21 [Example 390, 2-((3′-((4-chloro-6-(1H-1,2,3-triazol-1-yl)pyridin-3-yl)methoxy)-2,4′,5-trifluoro-[1,1′-biphenyl]-4-yl)methyl)-1-(2-methoxyethyl)-1H-benzo[d]imidazole-6-carboxylic acid]
0.107 nM | COCCn1c(Cc2c(F)cc(-c3cccc(OCc4cnc(-n5ccnn5)cc4Cl)n3)c(F)c2F)nc2ccc(C(=O)O)cc21 [Example 391, 2-(4-(6-((4-chloro-6-(1H-1,2,3-triazol-1-yl)pyridin-3-yl)methoxy)pyridin-2-yl)-2,3,6-trifluorobenzyl)-1-(2-methoxyethyl)-1H-benzo[d]imidazole-6-carboxylic acid]
0.036 nM | COCCn1c(Cc2c(F)cc(-c3ccc(F)c(OCc4cnc(-n5ccnn5)cc4Cl)n3)c(F)c2F)nc2ccc(C(=O)O)cc21 [Example 392, 2-(4-(6-((4-chloro-6-(1H-1,2,3-triazol-1-yl)pyridin-3-yl)methoxy)-5-fluoropyridin-2-yl)-2,3,6-trifluorobenzyl)-1-(2-methoxyethyl)-1H-benzo[d]imidazole-6-carboxylic acid]
0.652 nM | CC1(C)COC[C@H]1n1c(Cc2cc(F)c(-c3cccc(OCc4ccc(Cl)c(Cl)c4)n3)cc2F)nc2ccc(C(=O)O)cc21 [Example 393, (S)-2-(4-(6-((3,4-dichlorobenzyl)oxy)pyridin-2-yl)-2,5-difluorobenzyl)-1-(4,4-dimethyltetrahydrofuran-3-yl)-1H-benzo[d]imidazole-6-carboxylic acid]
0.243 nM | CC1(C)COC[C@H]1n1c(Cc2cc(F)c(-c3cccc(OCc4ccc(Cl)c(F)c4)n3)cc2F)nc2ccc(C(=O)O)cc21 [Example 394, (S)-2-(4-(6-((4-chloro-3-fluorobenzyl)oxy)pyridin-2-yl)-2,5-difluorobenzyl)-1-(4,4-dimethyltetrahydrofuran-3-yl)-1H-benzo[d]imidazole-6-carboxylic acid]
0.157 nM | CC1(C)COC[C@H]1n1c(Cc2cc(F)c(-c3ccc(F)c(OCc4ccc(C#N)cc4)n3)cc2F)nc2ccc(C(=O)O)nc21 [Example 396, (S)-2-(4-(6-((4-cyanobenzyl)oxy)-5-fluoropyridin-2-yl)-2,5-difluorobenzyl)-3-(4,4-dimethyltetrahydrofuran-3-yl)-3H-imidazo[4,5-b]pyridine-5-carboxylic acid]
0.546 nM | CC1(C)COC[C@H]1n1c(Cc2cc(F)c(-c3cccc(OCc4ccc(C#N)cc4)n3)cc2F)nc2cc(Cl)c(C(=O)O)cc21 [Example 397, (S)-5-chloro-2-(4-(6-((4-cyanobenzyl)oxy)pyridin-2-yl)-2,5-difluorobenzyl)-1-(4,4-dimethyltetrahydrofuran-3-yl)-1H-benzo[d]imidazole-6-carboxylic Acid]
0.217 nM | CC1(C)COC[C@H]1n1c(Cc2cc(F)c(-c3ccc(F)c(OCc4ccc(Cl)cc4Cl)n3)cc2F)nc2ccc(C(=O)O)cc21 [Example 398, (S)-2-(4-(6-((2,4-dichlorobenzyl)oxy)-5-fluoropyridin-2-yl)-2,5-difluorobenzyl)-1-(4,4-dimethyltetrahydrofuran-3-yl)-1H-benzo[d]imidazole-6-carboxylic acid]
0.124 nM | CC1(C)COC[C@H]1n1c(Cc2cc(F)c(-c3cccc(OCc4ccc(Cl)cc4Cl)n3)cc2F)nc2ccc(C(=O)O)cc21 [Example 399, (S)-2-(4-(6-((2,4-dichlorobenzyl)oxy)pyridin-2-yl)-2,5-difluorobenzyl)-1-(4,4-dimethyltetrahydrofuran-3-yl)-1H-benzo[d]imidazole-6-carboxylic acid]
0.44 nM | CC1(C)COC[C@H]1n1c(Cc2cc(F)c(-c3cccc(OCc4ccc(Cl)cc4F)n3)cc2F)nc2cc(O)c(C(=O)O)cc21 [Example 400, (S)-2-(4-(6-((4-chloro-2-fluorobenzyl)oxy)pyridin-2-yl)-2,5-difluorobenzyl)-1-(4,4-dimethyltetrahydrofuran-3-yl)-5-hydroxy-1H-benzo[d]imidazole-6-carboxylic acid]
0.247 nM | CC1(C)COC[C@H]1n1c(Cc2cc(F)c(-c3cccc(OCc4ccc(C#N)cc4)n3)cc2F)nc2cc(O)c(C(=O)O)cc21 [Example 401, (S)-2-(4-(6-((4-cyanobenzyl)oxy)pyridin-2-yl)-2,5-difluorobenzyl)-1-(4,4-dimethyltetrahydrofuran-3-yl)-5-hydroxy-1H-benzo[d]imidazole-6-carboxylic acid]
0.561 nM | CC1(C)COC[C@H]1n1c(Cc2cc(F)c(-c3cccc(OCc4ccc(Cl)cc4F)n3)cc2F)nc2cc(Cl)c(C(=O)O)cc21 [Example 402, (S)-5-chloro-2-(4-(6-((4-chloro-2-fluorobenzyl)oxy)pyridin-2-yl)-2,5-difluorobenzyl)-1-(4,4-dimethyltetrahydrofuran-3-yl)-1H-benzo[d]imidazole-6-carboxylic acid]
0.081 nM | COCCn1c(Cc2c(F)cc(-c3cccc(OCc4ccc(-n5ccnn5)cc4Cl)n3)c(F)c2F)nc2ccc(C(=O)O)cc21 [Example 403, 2-(4-(6-((2-chloro-4-(1H-1,2,3-triazol-1-yl)benzyl)oxy)pyridin-2-yl)-2,3,6-trifluorobenzyl)-1-(2-methoxyethyl)-1H-benzo[d]imidazole-6-carboxylic acid]
0.068 nM | CC1(C)COC[C@H]1n1c(Cc2cc(F)c(-c3ccnc(OCc4ccc(Cl)cc4Cl)n3)cc2F)nc2c(F)cc(C(=O)O)cc21 [Example 404, (S)-2-(4-(2-((2,4-dichlorobenzyl)oxy)pyrimidin-4-yl)-2,5-difluorobenzyl)-1-(4,4-dimethyltetrahydrofuran-3-yl)-4-fluoro-1H-benzo[d]imidazole-6-carboxylic acid]
0.337 nM | CC1(C)COC[C@H]1n1c(Cc2cc(F)c(-c3nccc(OCc4ccc(Cl)cc4F)n3)cc2F)nc2ccc(C(=O)O)cc21 [Example 405, (S)-2-(4-(4-((4-chloro-2-fluorobenzyl)oxy)pyrimidin-2-yl)-2,5-difluorobenzyl)-1-(4,4-dimethyltetrahydrofuran-3-yl)-1H-benzo[d]imidazole-6-carboxylic acid]
10.8 nM | O=C(O)c1ccc2nc(Cc3cc(F)c(-c4cccc(OCc5ccc(Cl)cc5F)n4)cc3F)n(C34COCC(C3)C4)c2c1 [Example 406, 1-(3-oxabicyclo[3.1.1]heptan-1-yl)-2-(4-(6-((4-chloro-2-fluorobenzyl)oxy)pyridin-2-yl)-2,5-difluorobenzyl)-1H-benzo[d]imidazole-6-carboxylic acid]
0.349 nM | CC1(C)COC[C@H]1n1c(Cc2cc(F)c(-c3ncc(F)c(OCc4ccc(Cl)cc4F)n3)cc2F)nc2ccc(C(=O)O)cc21 [Example 410, (S)-2-(4-(4-((4-chloro-2-fluorobenzyl)oxy)-5-fluoropyrimidin-2-yl)-2,5-difluorobenzyl)-1-(4,4-dimethyltetrahydrofuran-3-yl)-1H-benzo[d]imidazole-6-carboxylic acid]
0.281 nM | CC1(C)COC[C@H]1n1c(Cc2cc(F)c(-c3cccc(OCc4ccc(C(F)(F)F)cc4C#N)n3)cc2F)nc2ccc(C(=O)O)cc21 [Example 413, (S)-2-(4-(6-((2-cyano-4-(trifluoromethyl)benzyl)oxy)pyridin-2-yl)-2,5-difluorobenzyl)-1-(4,4-dimethyltetrahydrofuran-3-yl)-1H-benzo[d]imidazole-6-carboxylic acid]
0.261 nM | CC1(C)COC[C@H]1n1c(Cc2cc(F)c(-c3cccc(OCc4cnc(-n5ccnn5)cc4C(F)(F)F)n3)cc2F)nc2ccc(C(=O)O)cc21 [Example 414, (S)-2-(4-(6-((6-(1H-1,2,3-triazol-1-yl)-4-(trifluoromethyl)pyridin-3-yl)methoxy)pyridin-2-yl)-2,5-difluorobenzyl)-1-(4,4-dimethyltetrahydrofuran-3-yl)-1H-benzo[d]imidazole-6-carboxylic acid]
0.491 nM | CC1(C)COC[C@H]1n1c(Cc2c(F)cc(-c3ccc(Cl)c(OCc4ccc(C#N)cc4)n3)c(F)c2F)nc2ccc(C(=O)O)cc21 [Example 415, (S)-2-(4-(5-chloro-6-((4-cyanobenzyl)oxy)pyridin-2-yl)-2,3,6-trifluorobenzyl)-1-(4,4-dimethyltetrahydrofuran-3-yl)-1H-benzo[d]imidazole-6-carboxylic acid]
0.235 nM | CC1(C)COC[C@H]1n1c(Cc2c(F)cc(-c3ccc(Cl)c(OCc4ccc(C#N)cc4F)n3)c(F)c2F)nc2ccc(C(=O)O)cc21 [Example 416, (S)-2-(4-(5-chloro-6-((4-cyano-2-fluorobenzyl)oxy)pyridin-2-yl)-2,3,6-trifluorobenzyl)-1-(4,4-dimethyltetrahydrofuran-3-yl)-1H-benzo[d]imidazole-6-carboxylic acid]
